From patent US20250230193A1, “CYCLIC COMPOUND HAVING SELECTIVE KRAS INHIBITORY EFFECT ON HRAS AND NRAS” (CHUGAI SEIYAKU KABUSHIKI KAISHA, priority 2022, published 2025) come the findings set out here.

Assay [1] addresses GDP-bound NRAS wild-type protein (Homo sapiens, UniProt P01111). The assay is described as follows: Binding to NRAS by surface plasmon resonance (SPR), Single Cycle Kinetics. The settings on record: SPR; KD ratio class. Background: SPR reads the build-up and loss of mass on a sensor chip optically.
The subject of assay [2] is human lung cancer strain NCI-H441. Put plainly: cells. The settings on record: NCI-H441, 96 h, read-out: NCI-H441 IC50 (nM).
In assay [3] the target is GDP-bound HRAS wild-type protein (Homo sapiens, UniProt P01112). The assay is described as follows: Binding to HRAS by surface plasmon resonance (SPR), Single Cycle Kinetics. The settings on record: SPR; KD ratio class.
GDP-bound HRAS wild-type protein, sequence (P01112 whole entry): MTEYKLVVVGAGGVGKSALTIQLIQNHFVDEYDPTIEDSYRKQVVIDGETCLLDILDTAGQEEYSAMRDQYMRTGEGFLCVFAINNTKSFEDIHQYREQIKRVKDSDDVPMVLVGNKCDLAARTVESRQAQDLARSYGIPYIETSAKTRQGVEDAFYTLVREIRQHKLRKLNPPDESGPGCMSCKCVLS

GDP-bound NRAS wild-type protein, sequence (P01111 whole entry): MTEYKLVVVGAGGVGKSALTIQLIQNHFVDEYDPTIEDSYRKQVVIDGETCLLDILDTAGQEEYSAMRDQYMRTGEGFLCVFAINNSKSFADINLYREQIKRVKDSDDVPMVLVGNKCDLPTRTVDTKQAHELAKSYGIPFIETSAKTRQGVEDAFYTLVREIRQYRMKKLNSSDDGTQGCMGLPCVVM

A word on the IC50: it is the concentration needed to halve the response being measured. As to `CC[C@H](C)[C@@H]1NC(=O)[C@H](CC2CC2)N(C)C(=O)C[C@@H](C(=O)N(C)C)N(C)C(=O)[C@H](C2CCCC2)N(C)C(=O)C2(CCC2)NC(=O)[C@H](CCC(F)F)N(C)C(=O)[C@H](CCc2cc(F)c(C(F)(F)F)c(F)c2)NC(=O)CN(C)C(=O)[C@H](Cc2ccc(C(F)(F)F)cc2)N2CC/C=C\C[C@@H](C2=O)N(C)C(=O)CN(C)C1=O` [PP1402], the “NRAS/KRAS (ratio of KD value for GDP-bound NRAS wild-type protein to KD value for KRAS)” value in assay [1] is “A (a compound having 10 or more and less than 20 is denoted as A)”. For the same compound, the IC50 in assay [2] worked out at 82 nM. For the same compound, the “HRAS/KRAS (ratio of KD value for GDP-bound HRAS wild-type protein to KD value for KRAS)” value in assay [3] was “A (a compound having 10 or more and less than 20 is denoted as A)”.

With `CC[C@H](C)[C@@H]1NC(=O)[C@H](CC2CC2)N(C)C(=O)C[C@@H](C(=O)N(C)C)N(C)C(=O)[C@H](C2CCCC2)N(C)C(=O)C2(CCC2)NC(=O)[C@H](CC(F)F)N(C)C(=O)[C@H](CCc2cc(F)c(C(F)(F)F)c(F)c2)NC(=O)CN(C)C(=O)[C@H](Cc2ccc(C(F)(F)F)cc2)N2CC/C=C\C[C@@H](C2=O)N(C)C(=O)CN(C)C1=O` [PP1403], the “NRAS/KRAS (ratio of KD value for GDP-bound NRAS wild-type protein to KD value for KRAS)” value in assay [1] is “AA (a compound having 20 or more is denoted as AA)”. For the same compound, the IC50 in assay [2] is 111 nM. In addition, the “HRAS/KRAS (ratio of KD value for GDP-bound HRAS wild-type protein to KD value for KRAS)” value in assay [3] was “A (a compound having 10 or more and less than 20 is denoted as A)”.

Consider `CC[C@H](C)[C@@H]1NC(=O)[C@H](CC2CC2)N(C)C(=O)C[C@@H](C)N(C)C(=O)[C@H](C2CCCC2)N(C)C(=O)C2(CCC2)NC(=O)[C@H](CCC(F)F)N(C)C(=O)[C@H](CCc2cc(F)c(C(F)(F)F)c(F)c2)NC(=O)CN(C)C(=O)[C@H](Cc2ccc(C(F)(F)F)cc2)N2CC/C=C\C[C@@H](C2=O)N(C)C(=O)CN(C)C1=O` [PP1404], for which the “NRAS/KRAS (ratio of KD value for GDP-bound NRAS wild-type protein to KD value for KRAS)” value in assay [1] was “A (a compound having 10 or more and less than 20 is denoted as A)”. The IC50 in assay [2] is 498 nM. Besides, the “HRAS/KRAS (ratio of KD value for GDP-bound HRAS wild-type protein to KD value for KRAS)” value in assay [3] is “A (a compound having 10 or more and less than 20 is denoted as A)”.

For `CC[C@H](C)[C@@H]1NC(=O)[C@H](CC2CC2)N(C)C(=O)C[C@@H](C)N(C)C(=O)[C@H](C2CCCC2)N(C)C(=O)C2(CCC2)NC(=O)[C@H](CC(F)F)N(C)C(=O)[C@H](CCc2cc(F)c(C(F)(F)F)c(F)c2)NC(=O)CN(C)C(=O)[C@H](Cc2ccc(C(F)(F)F)cc2)N2CC/C=C\C[C@@H](C2=O)N(C)C(=O)CN(C)C1=O` [PP1405], in assay [1], the “NRAS/KRAS (ratio of KD value for GDP-bound NRAS wild-type protein to KD value for KRAS)” value is “A (a compound having 10 or more and less than 20 is denoted as A)”. Further, the IC50 in assay [2] turned out to be 466 nM. Besides, in assay [3], the “HRAS/KRAS (ratio of KD value for GDP-bound HRAS wild-type protein to KD value for KRAS)” value was “A (a compound having 10 or more and less than 20 is denoted as A)”.

In the case of `CCO[C@@H]1C[C@H]2C(=O)NC3(CCC3)C(=O)N(C)[C@@H](C3CCCC3)C(=O)N(C)[C@H](C(=O)N3CCOCC3)CC(=O)N(C)[C@@H](CC3CC3)C(=O)N[C@@H]([C@@H](C)CC)C(=O)N(C)CC(=O)N(C)[C@H]3C/C=C\CCN(C3=O)[C@@H](Cc3ccc(C)cc3)C(=O)N(C)CC(=O)N[C@@H](CCc3cc(F)c(C(F)(F)F)c(F)c3)C(=O)N2C1` [PP1408], in assay [1], the “NRAS/KRAS (ratio of KD value for GDP-bound NRAS wild-type protein to KD value for KRAS)” value was “A (a compound having 10 or more and less than 20 is denoted as A)”. Also, the IC50 in assay [2] is 37.6 nM. In addition, in assay [3], the “HRAS/KRAS (ratio of KD value for GDP-bound HRAS wild-type protein to KD value for KRAS)” value was “A (a compound having 10 or more and less than 20 is denoted as A)”.

Turning to `CCO[C@@H]1C[C@H]2C(=O)NC3(CCC3)C(=O)N(C)[C@@H](C3CCCC3)C(=O)N(C)[C@H](C(=O)N3CCCC3)CC(=O)N(C)[C@@H](CC3CC3)C(=O)N[C@@H]([C@@H](C)CC)C(=O)N(C)CC(=O)N(C)[C@H]3C/C=C\CCN(C3=O)[C@@H](Cc3ccc(C)cc3)C(=O)N(C)CC(=O)N[C@@H](CCc3cc(F)c(C(F)(F)F)c(F)c3)C(=O)N2C1` [PP1409], in assay [1], the “NRAS/KRAS (ratio of KD value for GDP-bound NRAS wild-type protein to KD value for KRAS)” value was “A (a compound having 10 or more and less than 20 is denoted as A)”. Besides, in assay [2], the IC50 is 43.5 nM. The “HRAS/KRAS (ratio of KD value for GDP-bound HRAS wild-type protein to KD value for KRAS)” value in assay [3] is “A (a compound having 10 or more and less than 20 is denoted as A)”.

Take `CCO[C@@H]1C[C@H]2C(=O)NC3(CCC3)C(=O)N(C)[C@@H](C3CCCC3)C(=O)N(C)[C@H](C)CC(=O)N(C)[C@@H](CC3CC3)C(=O)N[C@@H]([C@@H](C)CC)C(=O)N(C)CC(=O)N(C)[C@H]3C/C=C\CCN(C3=O)[C@@H](Cc3ccc(C)cc3)C(=O)N(C)CC(=O)N[C@@H](CCc3cc(F)c(C(F)(F)F)c(F)c3)C(=O)N2C1` [PP1410]: the “NRAS/KRAS (ratio of KD value for GDP-bound NRAS wild-type protein to KD value for KRAS)” value in assay [1] was “B (a compound having 3 or more and less than 10 is denoted as B)”. In addition, the IC50 in assay [2] came out at 51 nM. Also, the “HRAS/KRAS (ratio of KD value for GDP-bound HRAS wild-type protein to KD value for KRAS)” value in assay [3] is “B (a compound having 3 or more and less than 10 is denoted as B)”.

In the case of `CCO[C@@H]1C[C@H]2C(=O)NC3(CCC3)C(=O)N(C)[C@@H](C3CCCC3)C(=O)N(C)[C@H](C(=O)N3CCCC3)CC(=O)N(C)[C@@H](CC3CCCC3)C(=O)N[C@@H]([C@@H](C)CC)C(=O)N(C)CC(=O)N(C)[C@H]3C/C=C\CCN(C3=O)[C@@H](Cc3ccc(C)cc3)C(=O)N(C)CC(=O)N[C@@H](CCc3cc(F)c(C(F)(F)F)c(F)c3)C(=O)N2C1` [PP1412], in assay [1], the “NRAS/KRAS (ratio of KD value for GDP-bound NRAS wild-type protein to KD value for KRAS)” value was “A (a compound having 10 or more and less than 20 is denoted as A)”. The IC50 in assay [2] was 23 nM. The “HRAS/KRAS (ratio of KD value for GDP-bound HRAS wild-type protein to KD value for KRAS)” value in assay [3] is “A (a compound having 10 or more and less than 20 is denoted as A)”.

Regarding `CCO[C@@H]1C[C@H]2C(=O)NC3(CCC3)C(=O)N(C)[C@@H](C3CCCC3)C(=O)N(C)[C@H](C)CC(=O)N(C)[C@@H](CC3CCCC3)C(=O)N[C@@H]([C@@H](C)CC)C(=O)N(C)CC(=O)N(C)[C@H]3C/C=C\CCN(C3=O)[C@@H](Cc3ccc(C)cc3)C(=O)N(C)CC(=O)N[C@@H](CCc3cc(F)c(C(F)(F)F)c(F)c3)C(=O)N2C1` [PP1413], in assay [1], the “NRAS/KRAS (ratio of KD value for GDP-bound NRAS wild-type protein to KD value for KRAS)” value was “B (a compound having 3 or more and less than 10 is denoted as B)”. In assay [2], the half-maximal inhibitory concentration (IC50) was 62.5 nM. Further, the “HRAS/KRAS (ratio of KD value for GDP-bound HRAS wild-type protein to KD value for KRAS)” value in assay [3] is “B (a compound having 3 or more and less than 10 is denoted as B)”.

On to `CCO[C@@H]1C[C@H]2C(=O)NC3(CCC3)C(=O)N(C)[C@@H](C3CCCC3)C(=O)N(C)[C@H](C(=O)N3CCOCC3)CC(=O)N(C)[C@@H](CC(C)C)C(=O)N[C@@H]([C@@H](C)CC)C(=O)N(C)CC(=O)N(C)[C@H]3C/C=C\CCN(C3=O)[C@@H](Cc3ccc(C)cc3)C(=O)N(C)CC(=O)N[C@@H](CCc3cc(F)c(C(F)(F)F)c(F)c3)C(=O)N2C1` [PP1415], for which the “NRAS/KRAS (ratio of KD value for GDP-bound NRAS wild-type protein to KD value for KRAS)” value in assay [1] was “A (a compound having 10 or more and less than 20 is denoted as A)”. In addition, the IC50 in assay [2] turned out to be 9.5 nM. Also, the “HRAS/KRAS (ratio of KD value for GDP-bound HRAS wild-type protein to KD value for KRAS)” value in assay [3] is “A (a compound having 10 or more and less than 20 is denoted as A)”.

Consider `CCO[C@@H]1C[C@H]2C(=O)NC3(CCC3)C(=O)N(C)[C@@H](C3CCCC3)C(=O)N(C)[C@H](C(=O)N3CCCC3)CC(=O)N(C)[C@@H](CC(C)C)C(=O)N[C@@H]([C@@H](C)CC)C(=O)N(C)CC(=O)N(C)[C@H]3C/C=C\CCN(C3=O)[C@@H](Cc3ccc(C)cc3)C(=O)N(C)CC(=O)N[C@@H](CCc3cc(F)c(C(F)(F)F)c(F)c3)C(=O)N2C1` [PP1416], for which the “NRAS/KRAS (ratio of KD value for GDP-bound NRAS wild-type protein to KD value for KRAS)” value in assay [1] was “A (a compound having 10 or more and less than 20 is denoted as A)”. Further, the IC50 in assay [2] is 3.8 nM. Also, the “HRAS/KRAS (ratio of KD value for GDP-bound HRAS wild-type protein to KD value for KRAS)” value in assay [3] is “A (a compound having 10 or more and less than 20 is denoted as A)”.
